Test system: soil Fusarium sp.
Experiment: Activity against soil Fusarium sp.

With `CC(=O)O.CCCCCCCCCCCCNC(=N)N` [dodine, 1-dodecylguanidinium acetate] the “Activity against soil Fusarium sp.” value was “active”.

Source: patent US20180132483A1, “Method of Controlling Phytoparasitic Pests, Agrochemical Composition and Use Thereof” (priority 2016, published 2018)
